Measured values as given in patent US6596753B2, “Compounds of the indolecarboxylic family and use thereof” (Societe L'Oreal S.A., priority 1997, dated 2003).

Legend:
5α-reductase 1 = target: T1, 5α-reductase 1 (Homo sapiens, UniProt P18405); assay: Inhibition of type 1 5α-reductase (14C-testosterone to DHT conversion, lysate of transfected COS7 cells); type: biochemical; conditions: for IC50: pH 6.5 phosphate buffer, 1 nM 14C-testosterone, 5 mM NADPH, 50 minutes at 37° C., read-out: 5α-reductases: IC50 Type I; for quality as inhibitor of 5α-reductase (in words): statement covers both types of 5α-reductase; for specificity with respect to type 1 5α-reductase (in words): type 1 versus type 2
T1 construct: made in house; host or cells: COS7 cells (ATCC, CRL 1651), transient transfection with pSG5; 100,000 x g pellet of the lysate
T1 sequence (P18405 1-259): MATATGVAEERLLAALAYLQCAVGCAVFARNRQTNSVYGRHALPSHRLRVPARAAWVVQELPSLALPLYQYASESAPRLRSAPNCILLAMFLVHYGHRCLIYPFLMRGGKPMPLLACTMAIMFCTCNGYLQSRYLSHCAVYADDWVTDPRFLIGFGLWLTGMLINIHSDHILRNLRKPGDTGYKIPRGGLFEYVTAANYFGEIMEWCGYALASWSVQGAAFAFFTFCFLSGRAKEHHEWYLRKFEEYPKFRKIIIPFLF
From the text: (§1) The coding sequences (complementary deoxyribonucleic acids: cDNA) of 5α-reductase 1 and of 5α-reductase 2 were cloned in the eukaryotic expression vector pSG5 (Stratagene). The enzymes were over-expressed after transient transfection of COS7 cells (ATCC, CRL 1651). The cDNAs of 5α-reductase 1 and of 5α-reductase 2 were obtained by reverse transcription and polymerase chain reaction (PCR) using specific primers, starting with total RNA from human testicles (sold by the company Clontech).
The primers used to obtain the 5α-reductase 1 cDNA are:
+ strand: 5′ […] 3′,
− strand: 5′ […] 3′.
(§2) By standard genetic engineering techniques, the 5α-reductase 1 cDNA obtained was inserted into the BamHI site of pSG5 and that of 5α-reductase 2 was inserted into the EcoRI site (see Maniatis et al., Molecular Cloning, Cold Spring Harbor, 1989).
(§3) The positive clones (recombinants) were identified by the hybridization technique with a cold probe (Plex luminescent kits, Millipore) and mapped by enzymatic digestions and partial sequencing.
(§4) After transient transfection, the COS7 cells are lysed in a 10 mM Tris-HCl, pH=7/150 mM KCl/1 mM EDTA buffer by 3 cycles of freezing/thawing. The homogenate is centrifuged at 100,000× g for 1 hour. The pellets containing the 5α-reductase 1 or the 5α-reductase 2 are taken up in a 40 mM, pH 6.5 phosphate buffer or a 40 mM, pH 5.5 citrate buffer for the 5α-reductase 1 or 5α-reductase 2, respectively.
(§5) 5 μg of proteins thus obtained are incubated in a well of a 96-well plate (NUNC) in the presence of 1 nM ^14C-testosterone (Amersham) and 5 mM nicotinamide […] dinucleotide phosphate, reduced form (NADPH) (Sigma) in the corresponding buffer (40 mM, pH 6.5 phosphate buffer or 40 mM, pH 5.5 citrate buffer for the 5α-reductase 1 or 5α-reductase 2, respectively) for 50 minutes at 37° C. after addition of the test products. The test products are added at concentrations of 10^−4 M to 10^−10 M, diluted in 40 mM, pH 6.5 phosphate buffer or 40 mM, pH 5.5 citrate buffer for the 5α-reductase 1 or 5α-reductase 2, respectively.
(§6) The reaction mixtures are then placed directly on a silica plate (HPTLC, 60F 254, Merck) and subjected to chromatography (solvent=10% diethyl ether, 90% dichloromethane). They are then analysed by digital autoradiography (Berthold).
(§7) The inhibition of the activity of the isoenzymes is measured by calculating the percentage of dihydrotestosterone formed from ^14C-testosterone relative to an untreated control.

5α-reductase 2 = target: T2, 5α-reductase 2 (Homo sapiens, UniProt P31213); assay: Inhibition of type 2 5α-reductase (14C-testosterone to DHT conversion, lysate of transfected COS7 cells); type: biochemical; conditions: for IC50: pH 5.5 citrate buffer, 1 nM 14C-testosterone, 5 mM NADPH, 50 minutes at 37° C., read-out: 5α-reductases: IC50 Type II; for specificity for the type 2 5α-reductase (in words): type 2 versus type 1
T2 construct: made in house; host or cells: COS7 cells (ATCC, CRL 1651), transient transfection with pSG5; 100,000 x g pellet of the lysate
T2 sequence (P31213 1-254): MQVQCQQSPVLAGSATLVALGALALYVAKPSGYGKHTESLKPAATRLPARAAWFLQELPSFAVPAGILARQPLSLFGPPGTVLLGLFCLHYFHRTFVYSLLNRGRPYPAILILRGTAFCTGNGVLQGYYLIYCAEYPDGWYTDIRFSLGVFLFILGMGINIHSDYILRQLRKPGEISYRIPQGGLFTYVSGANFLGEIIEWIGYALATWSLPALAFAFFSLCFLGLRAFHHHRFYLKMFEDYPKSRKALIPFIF
From the text: as §1
The primers used to obtain the 5α-reductase 2 cDNA are:
+ strand: 5′ GCGATGCAGGTTCAGTG 3′
− strand: 5′ ATTGTGGGAGCTCTGCT 3′.
as §2, §3, §4, §5, §6, §7

SMILES	IC50 (5α-reductase 1) [µM]	IC50 (5α-reductase 2) [µM]	quality as inhibitor of 5α-reductase (in words) (5α-reductase 1)	specificity with respect to type 1 5α-reductase (in words) (5α-reductase 1)	specificity for the type 2 5α-reductase (in words) (5α-reductase 2)
Cc1c(C(=O)O)[nH]c2cc(OCc3ccccc3)c(OCc3ccccc3)cc12 [Compound b, 5,6-bis(benzyloxy)-3-methyl-1H-indole-2-carboxylic acid]	> 100	1	moderate inhibitor	more pronounced specificity for the type 1 5α-reductase	–
COc1cc2[nH]c(C(=O)O)cc2cc1OCc1cc(C(F)(F)F)cc(C(F)(F)F)c1 [Example 3, 5-[3,5-bis(trifluoromethyl)benzyloxy]-6-methoxy-1H-indole-2-carboxylic Acid]	0.5	0.001 to 0.005	very good inhibitors of the two types of 5α-reductase	–	–
COc1cc2[nH]c(C(=O)O)cc2cc1OCc1cc(OC)c(OC)c(OC)c1 [Example 4, 5-(3,4,5-trimethoxybenzyloxy)-6-methoxy-1H-indole-2-carboxylic acid]	> 100	0.01	–	–	more pronounced specificity for the type 2 5α-reductase
O=C(O)c1cc2c(ccc3ccccc32)[nH]1 [Example 7, 3H-benz[e]indole-2-carboxylic acid]	3	6	–	pronounced specificity with respect to type 1 5α-reductase	–
Cn1c(C(=O)O)cc2c3ccccc3ccc21 [Example 8, 3-methyl-3H-benz[e]indole-2-carboxylic Acid]	0.5	10	–	pronounced specificity with respect to type 1 5α-reductase	–

The next lines start with results.

IC50 (5α-reductase 1) [µM]	IC50 (5α-reductase 2) [µM]	SMILES	quality as inhibitor of 5α-reductase (in words) (5α-reductase 1)	specificity with respect to type 1 5α-reductase (in words) (5α-reductase 1)	specificity for the type 2 5α-reductase (in words) (5α-reductase 2)
1 to 4	> 100	COc1cc(OCc2ccccc2)c2cc(C(=O)O)[nH]c2c1 [Example 1, 4-benzyloxy-6-methoxy-1H-indole-2-carboxylic acid]	–	very pronounced specificity with respect to type 1 5α-reductase	–
10	> 100	COc1cc(OCc2cc(C(F)(F)F)cc(C(F)(F)F)c2)c2cc(C(=O)O)[nH]c2c1 [Example 2, 4-[3,5-bis(trifluoromethyl)benzyloxy]-6-methoxy-1H-indole-2-carboxylic acid]	–	very pronounced specificity with respect to type 1 5α-reductase	–
1 to 5	0.01	COc1ccc(COc2cc3cc(C(=O)O)[nH]c3cc2OC)cc1 [Example 5, 5-(4-methoxybenzyloxy)-6-methoxy-1H-indole-2-carboxylic acid]	very good inhibitors of the two types of 5α-reductase	–	–
5	0.04	COc1cc2[nH]c(C(=O)O)cc2cc1OCc1ccc(C#N)cc1 [Example 6, 5-(4-cyanobenzyloxy)-6-methoxy-1H-indole-2-carboxylic acid]	very good inhibitors of the two types of 5α-reductase	–	–
1	0.001	COc1cc2[nH]c(C(=O)O)cc2cc1OCc1ccccc1 [a, 5-benzyloxy-6-methoxy-1H-indole-2-carboxylic acid]	very good inhibitors of the two types of 5α-reductase	–	–
> 100	0.005	O=C(O)c1cc2cc(OCc3ccccc3)c(OCc3ccccc3)cc2[nH]1 [c, 5,6-bis(benzyloxy)-1H-indole-2-carboxylic acid]	–	–	more pronounced specificity for the type 2 5α-reductase
